The source of these data is patent US9649379B2, “Pharmaceutical composition and pharmaceutical kit for the treatment of hepatocellular carcinoma” (ALMA MATER STUDIORUM—UNIVERSITA' DI BOLOGNA, priority 2007, dated 2017).

The test concerns Cleaved PARP. As to the kind of experiment: Apoptosis analysis: Western blot of cleaved PARP after doxorubicin. The class given is cell-based, human. The settings on record: doxorubicin 100 μg/ml, infected HepG2 cells. How it is done: Stably infected cell populations of HepG2 cells were seeded into 6-well dishes and allowed to attach for 24 hours, washed and cultured in fresh complete medium with 100 ug/ml doxorubicin (Sigma) for 1 h, 3 h, 6 h, 12 h, 18 h and 24 h. Doxorubicin incorporation was detected by FACS counting of 10,000 events.
Cultured cells were dissolved in lysis buffer containing 10 mM Tris-HCl pH 7.4, 2.5 mM MgCl2, 1% TritonX 100, 1 mM DTT, 0.1 mM phenylmethylsulfonyl fluoride (PMSF), 1 mM Na3VO4, 1 mM NaF and protease inhibitors (Sigma Chemical Company, St. Louis, Mo.). The lysate was centrifuged at 4° C., 15,000×g, for 15 min and the supernatant assayed for protein concentration by Bio-Rad protein assay (Bio-Rad). […]
After repeated washing in PBS containing 0.1% Tween 20 (PBST), membranes were incubated with anti-mouse or anti-rabbit HRP-conjugated secondary antibodies using the EnVision dextran polymer visualization system (Dako). […] Digital images of autoradiographs were acquired with a Fluor-S MultiImager scanner (BioRad) and signals were quantitated with Quantity-one densitometric software (BioRad, Hercules, Calif.) in absorbance units after light calibration with a reference autoradiograph.
A general note: A western blot detects proteins with antibodies after separation by electrophoresis.

As to `COc1cccc2c1C(=O)c1c(O)c3c(c(O)c1C2=O)C[C@@](O)(C(=O)CO)C[C@@H]3O[C@H]1C[C@H](N)[C@H](O)[C@H](C)O1` [Doxorubicin, doxorubicin], the “cleavage of PARP” value is on record as “caused cleavage of PARP”.
